# According to patent publication US20190071416A1, “COMPOUNDS FOR TREATMENT OF CANCER AND EPIGENETICS” (Agency For Science, Technology and Research, priority 2015, published 2019):
# Biological target: T1, SMYD3 (Homo sapiens, UniProt Q9H7B4)
# T1 sequence (Q9H7B4 1-428): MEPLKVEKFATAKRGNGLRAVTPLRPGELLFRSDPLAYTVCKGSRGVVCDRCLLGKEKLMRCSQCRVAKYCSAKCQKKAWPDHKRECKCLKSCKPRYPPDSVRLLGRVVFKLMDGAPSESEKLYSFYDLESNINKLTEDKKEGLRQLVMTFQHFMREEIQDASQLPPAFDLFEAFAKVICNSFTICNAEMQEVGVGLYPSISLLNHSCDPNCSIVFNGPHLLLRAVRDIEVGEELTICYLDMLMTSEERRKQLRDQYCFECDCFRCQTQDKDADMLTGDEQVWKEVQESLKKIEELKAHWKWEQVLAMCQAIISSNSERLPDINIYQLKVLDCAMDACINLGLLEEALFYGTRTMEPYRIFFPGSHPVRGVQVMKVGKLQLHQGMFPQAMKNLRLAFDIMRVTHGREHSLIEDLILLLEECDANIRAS
# Assay: SMYD3 biochemical assay (MTase-Glo, MAP3K2 peptide substrate)
# Conditions: Table 3; MTase assay, MAP3K2 peptide substrate; read-out: IC50
# Method in brief: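 Luminescent readout of SAH production (coupled SAH→ATP conversion, MTase-Glo) after SMYD3 reacted 30 min at room temperature with 1.0 µM SAM and 10 µM MAP3K2 peptide, both final. Non-linear regression gave IC50 values.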
row,IC50 [nM],SMILES
1,140,"CCCOC(=O)N1CCN(C(=O)c2ccc3c(Cl)cc(-c4ccc(C(C)(C)O)cc4)nc3c2)CC1 [B244, Propyl 4-(4-chloro-2-(4-(2-hydroxypropan-2-yl)phenyl)quinoline-7-carbonyl)piperazine-1-carboxylate]"
2,140,"Cn1ccc(-c2cc(Cl)c3ccc(C(=O)N4CCN(C(=O)OCCF)CC4)cc3n2)c1 [B248, 2-Fluoroethyl 4-(4-chloro-2-(1-methyl-1H-pyrrol-3-yl)quinoline-7-carbonyl)piperazine-1-carboxylate]"
3,190,"CCCOC(=O)N1CCN(C(=O)c2ccc3c(Cl)cc(-c4cnn(CC(N)=O)c4)nc3c2)CC1 [B249, Propyl 4-(2-(1-(2-amino-2-oxoethyl)-1H-pyrazol-4-yl)-4-chloroquinoline-7-carbonyl)piperazine-1-carboxylate]"
4,4900,"CCCOC(=O)N1CCN(C(=O)c2ccc3c(Cl)cc(-c4cn[nH]c4C(F)(F)F)nc3c2)CC1 [B250, Propyl 4-(4-chloro-2-(5-(trifluoromethyl)-1H-pyrazol-4-yl)quinoline-7-carbonyl)piperazine-1-carboxylate]"
5,520,"CCCOC(=O)N1CCN(C(=O)c2ccc3c(Cl)cc(-c4ccn(S(C)(=O)=O)c4)nc3c2)CC1 [B252, Propyl 4-(4-chloro-2-(1-(methylsulfonyl)-1H-pyrrol-3-yl)quinoline-7-carbonyl)piperazine-1-carboxylate]"
6,490,"CCCOC(=O)N1CCN(C(=O)c2ccc3c(Cl)cc(-c4cc(F)c(C(N)=O)c(F)c4)nc3c2)CC1 [B253, Propyl 4-(2-(4-carbamoyl-3,5-difluorophenyl)-4-chloroquinoline-7-carbonyl)piperazine-1-carboxylate]"
7,28,"CCCOC(=O)N1CCN(C(=O)c2ccc3c(Cl)cc(-c4ccc(CO)cc4)nc3c2)CC1 [B255, Propyl 4-(4-chloro-2-(4-(hydroxymethyl)phenyl)quinoline-7-carbonyl)piperazine-1-carboxylate]"
8,150,"CCCOC(=O)N1CCN(C(=O)c2ccc3c(Cl)cc(-c4ccc(CO)c(F)c4)nc3c2)CC1 [B257, Propyl 4-(4-chloro-2-(3-fluoro-4-(hydroxymethyl)phenyl)quinoline-7-carbonyl)piperazine-1-carboxylate]"
9,850,"CCCOC(=O)N1CCN(C(=O)c2ccc3c(Cl)cc(-c4cc(F)c(CN)c(F)c4)nc3c2)CC1 [B258, Propyl 4-(2-(4-(aminomethyl)-3,5-difluorophenyl)-4-chloroquinoline-7-carbonyl)piperazine-1-carboxylate]"
10,2700,"Cn1cc(-c2cc(Cl)c3ccc(C(=O)N4CCN(C(=O)OCCF)CC4)cc3n2)cn1 [B261, 2-Fluoroethyl 4-(4-chloro-2-(1-methyl-1H-pyrazol-4-yl)quinoline-7-carbonyl)piperazine-1-carboxylate]"
11,210,"CCCOC(=O)N1CCN(C(=O)c2ccc3c(Cl)cc(-c4cnn(CC(F)(F)F)c4)nc3c2)CC1 [B274, Propyl 4-(4-chloro-2-(1-(2,2,2-trifluoroethyl)-1H-pyrazol-4-yl)quinoline-7-carbonyl)piperazine-1-carboxylate]"

# The next lines start with the compound.
row,SMILES,IC50 [nM]
1,"CNC(=O)c1ccc(-c2cc(Cl)c3ccc(C(=O)N4CCN(C(=O)OCC(C)C)CC4)cc3n2)cc1 [B245, Isobutyl 4-(4-chloro-2-(4-(methylcarbamoyl)phenyl)quinoline-7-carbonyl)piperazine-1-carboxylate]",1010
2,"CC(C)COC(=O)N1CCN(C(=O)c2ccc3c(Cl)cc(-c4ccn(C)c4)nc3c2)CC1 [B246, Isobutyl 4-(4-chloro-2-(1-methyl-1H-pyrrol-3-yl)quinoline-7-carbonyl)piperazine-1-carboxylate]",270
3,"CNC(=O)c1ccc(-c2cc(Cl)c3ccc(C(=O)N4CCN(C(=O)OCCF)CC4)cc3n2)cc1 [B247, 2-Fluoroethyl 4-(4-chloro-2-(4-(methylcarbamoyl)phenyl)quinoline-7-carbonyl)piperazine-1-carboxylate]",7400
4,"CCCOC(=O)N1CCN(C(=O)c2ccc3c(Cl)cc(-c4cc[nH]c4)nc3c2)C[C@H]1C [B251, Propyl (R)-4-(4-chloro-2-(1H-pyrrol-3-yl)quinoline-7-carbonyl)-2-methylpiperazine-1-carboxylate]",43
5,"CCCOC(=O)N1CCN(C(=O)c2ccc3c(Cl)cc(-c4cc[nH]c4)nc3c2)[C@@H](C)C1 [B254, Propyl (S)-4-(4-chloro-2-(1H-pyrrol-3-yl)quinoline-7-carbonyl)-3-methylpiperazine-1-carboxylate]",54
6,"CCCOC(=O)N1CCN(C(=O)c2ccc3c(Cl)cc(-c4ccc(COCC)cc4)nc3c2)CC1 [B256, Propyl 4-(4-chloro-2-(4-(ethoxymethyl)phenyl)quinoline-7-carbonyl)piperazine-1-carboxylate]",500
7,"C[C@@H]1CN(C(=O)c2ccc3c(Cl)cc(C4CC4)nc3c2)CCN1C(=O)OCCF [B259, 2-Fluoroethyl (R)-4-(4-chloro-2-cyclopropylquinoline-7-carbonyl)-2-methylpiperazine-1-carboxylate]",2600
8,"C[C@H]1CN(C(=O)OCCF)CCN1C(=O)c1ccc2c(Cl)cc(C3CC3)nc2c1 [B260, 2-Fluoroethyl (S)-4-(4-chloro-2-cyclopropylquinoline-7-carbonyl)-3-methylpiperazine-1-carboxylate]",4900
9,"CCCOC(=O)N1CCN(C(=O)c2ccc3c(Cl)c(F)c(-c4ccn(C)c4)nc3c2)CC1 [B262, Propyl 4-(4-chloro-3-fluoro-2-(1-methyl-1H-pyrrol-3-yl)quinoline-7-carbonyl)piperazine-1-carboxylate]",390
10,"CCCOC(=O)N1CCN(C(=O)c2ccc3c(Cl)cc(C4(F)CC4)nc3c2)CC1 [B263, Propyl 4-(4-chloro-2-(1-fluorocyclopropyl)quinoline-7-carbonyl)piperazine-1-carboxylate]",13900
11,"CCCOC(=O)N1CCN(C(=O)c2ccc3c(Cl)cc(-c4ccc(CN=[N+]=[N-])cc4)nc3c2)CC1 [B264, Propyl 4-(2-(4-(azidomethyl)phenyl)-4-chloroquinoline-7-carbonyl)piperazine-1-carboxylate]",84
12,"CCCOC(=O)N1CCN(C(=O)c2ccc3c(Cl)cc(-c4ccc(C(C)(C)O)cc4)nc3c2)C[C@H]1C [B265, Propyl (R)-4-(4-chloro-2-(4-(2-hydroxypropan-2-yl)phenyl)quinoline-7-carbonyl)-2-methylpiperazine-1-carboxylate]",67
13,"CC(C)(O)c1ccc(-c2cc(Cl)c3ccc(C(=O)N4CCN(C(=O)OCCF)CC4)cc3n2)cc1 [B266, 2-Fluoroethyl 4-(4-chloro-2-(4-(2-hydroxypropan-2-yl)phenyl)quinoline-7-carbonyl)piperazine-1-carboxylate]",3300
14,"C[C@@H]1CN(C(=O)c2ccc3c(Cl)cc(-c4ccc(C(C)(C)O)cc4)nc3c2)CCN1C(=O)OCCF [B267, 2-Fluoroethyl (R)-4-(4-chloro-2-(4-(2-hydroxypropan-2-yl)phenyl)quinoline-7-carbonyl)-2-methylpiperazine-1-carboxylate]",150
15,"CCCOC(=O)N1CCN(C(=O)c2ccc3c(Cl)cc(-c4ccn(C)c4)nc3c2)C[C@H]1C [B268, Propyl (R)-4-(4-chloro-2-(1-methyl-1H-pyrrol-3-yl)quinoline-7-carbonyl)-2-methylpiperazine-1-carboxylate]",17
16,"CCCOC(=O)N1CCN(C(=O)c2ccc3c(Cl)cc(-c4ccc(C(C)(C)O)c(F)c4)nc3c2)C[C@H]1C [B269, Propyl (R)-4-(4-chloro-2-(3-fluoro-4-(2-hydroxypropan-2-yl)phenyl)quinoline-7-carbonyl)-2-methylpiperazine-1-carboxylate]",170
17,"CCCOC(=O)N1CCN(C(=O)c2ccc3c(Cl)cc(-c4ccc(C(C)(C)O)cc4)nc3c2)C[C@@H]1C [B270, Propyl (S)-4-(4-chloro-2-(4-(2-hydroxypropan-2-yl)phenyl)quinoline-7-carbonyl)-2-methylpiperazine-1-carboxylate]",16
18,"CCCOC(=O)N1CCN(C(=O)c2ccc3c(Cl)cc(-c4cnn(C5COC5)c4)nc3c2)CC1 [B271, Propyl 4-(4-chloro-2-(1-(oxetan-3-yl)-1H-pyrazol-4-yl)quinoline-7-carbonyl)piperazine-1-carboxylate]",34
19,"CCCOC(=O)N1CCN(C(=O)c2ccc3c(Cl)cc(-c4cnn(C5COC5)c4)nc3c2)C[C@H]1C [B272, Propyl (R)-4-(4-chloro-2-(1-(oxetan-3-yl)-1H-pyrazol-4-yl)quinoline-7-carbonyl)-2-methylpiperazine-1-carboxylate]",16
20,"CCCOC(=O)N1CCN(C(=O)c2ccc3c(Cl)cc(-c4cnn(C5COC5)c4)nc3c2)C[C@@H]1C [B273, Propyl (S)-4-(4-chloro-2-(1-(oxetan-3-yl)-1H-pyrazol-4-yl)quinoline-7-carbonyl)-2-methylpiperazine-1-carboxylate]",19
21,"CCCOC(=O)N1CCN(C(=O)c2ccc3c(Cl)cc(-c4cnn(CC(F)(F)F)c4)nc3c2)C[C@H]1C [B275, Propyl (R)-4-(4-chloro-2-(1-(2,2,2-trifluoroethyl)-1H-pyrazol-4-yl)quinoline-7-carbonyl)-2-methylpiperazine-1-carboxylate]",34
22,"CCCOC(=O)N1CCN(C(=O)c2ccc3c(Cl)cc(-c4cnn(CC(F)(F)F)c4)nc3c2)C[C@@H]1C [B276, Propyl (S)-4-(4-chloro-2-(1-(2,2,2-trifluoroethyl)-1H-pyrazol-4-yl)quinoline-7-carbonyl)-2-methylpiperazine-1-carboxylate]",22
